Measurements published in patent EP4685153A1 (priority 2023, dated 2024).
Residues, ends and D or L forms follow the SMILES beside them. *: point of attachment. Succinyl(4-O-cholesteryl) = CC(C)CCC[C@@H](C)[C@H]1CC[C@H]2[C@@H]3CC=C4C[C@@H](OC(=O)CCC(=O)*)CC[C@]4(C)[C@H]3CC[C@]12C

How the values were obtained:
[1] = system: T20-resistant mutant strains (HIV-1 strain NL4-3); conditions: T20-resistant mutant strains ( strain NL4-3, 48 h)
[2] = Circular dichroism of lipopeptide alone; assay type: physicochemical; conditions: CD, 10 µM in PBS pH 7.2
N44 = N44 (Human immunodeficiency virus type 1 group M subtype B, UniProt P04578); experiment: Circular dichroism of lipopeptide complex with target sequence N44; conditions: CD; for Tm value of the mixture with N44: [θ]222, 20-98 °C at 2 °C/min; for α-helix content of the mixture with N44: lipopeptide and N44 each 10 µM in PBS pH 7.2
[3] = system: HIV-1 strain SG3.1 living virus; conditions: for IC50: strain SG3.1 living virus
[4] = system: HIV-1 strain JRFL pseudovirus; conditions: for IC50: strain JRFL pseudovirus
[5] = system: HIV-1 strain NL4-3 pseudovirus; conditions: for IC50: strain NL4-3 pseudovirus
[6] = LP-124 versus LP-122, LP-125 versus LP-123

Chain of N44 (P04578 538-581): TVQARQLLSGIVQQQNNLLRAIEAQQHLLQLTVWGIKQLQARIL

SMILES | IC50 [1] [pM] | α-helix content, lipopeptide alone [2] [%] | Tm value of the mixture with N44 (N44) [°C] | α-helix content of the mixture with N44 (N44) [%] | IC50 [3] [pM] | IC50 [4] [pM] | IC50 [5] [pM] | activity increased as compared to its template, SG3.1 living virus [3, 6] [folds] | activity increased as compared to its template, JRFL pseudovirus [4, 6] [folds] | activity increased as compared to its template, NL4-3 pseudovirus [5, 6]
CC[C@H](C)[C@H](NC(=O)[C@H](CCCCN)NC(=O)[C@H](CCC(N)=O)NC(=O)[C@H](CCC(=O)O)NC(=O)[C@H](Cc1ccc(O)cc1)NC(C)=O)C(=O)N[C@@H](CCC(=O)O)C(=O)N[C@@H](CCC(=O)O)C(=O)N[C@@H](CC(C)C)C(=O)N[C@@H](CC(C)C)C(=O)N[C@@H](CCCCN)C(=O)N[C@@H](CCCCN)C(=O)N[C@@H](C)C(=O)N[C@@H](CCC(=O)O)C(=O)N[C@@H](CCC(=O)O)C(=O)N[C@@H](CCC(N)=O)C(=O)N[C@@H](CCC(N)=O)C(=O)N[C@@H](CCCCN)C(=O)N[C@@H](CCCCN)C(=O)N[C@@H](CC(N)=O)C(=O)N[C@@H](CCC(=O)O)C(=O)N[C@@H](CCC(=O)O)C(=O)N[C@@H](CC(C)C)C(=O)N[C@@H](CCCCN)C(=O)N[C@@H](CCCCN)C(=O)N[C@@H](CC(C)C)C(=O)N[C@@H](CCC(=O)O)C(=O)N[C@@H](CCCCNC(=O)CCC(=O)O[C@H]1CC[C@@]2(C)C(=CC[C@H]3[C@@H]4CC[C@H]([C@H](C)CCCC(C)C)[C@@]4(C)CC[C@@H]32)C1)C(N)=O [LP-98, reference compound] (Ac-YEQKIEELLKKAEEQQKKNEELKKLEK(Succinyl(4-O-cholesteryl))-NH2) | 2660 |  |  |  |  |  |  |  |  | 
CC[C@H](C)[C@H](NC(=O)[C@H](CCCCN)NC(=O)[C@H](CCCCN)NC(=O)[C@H](CCC(=O)O)NC(=O)[C@H](Cc1c[nH]c2ccccc12)NC(=O)[C@H](CCC(=O)O)NC(=O)[C@H](CCC(=O)O)NC(=O)[C@H](Cc1c[nH]c2ccccc12)NC(=O)[C@@H](NC(=O)[C@H](CCSC)NC(=O)[C@H](CCC(=O)O)NC(C)=O)[C@@H](C)O)C(=O)N[C@@H](CCC(=O)O)C(=O)N[C@@H](CCC(=O)O)C(=O)N[C@@H](CC(C)C)C(=O)N[C@@H](CCC(=O)O)C(=O)N[C@@H](CCCCN)C(=O)N[C@@H](CCCCN)C(=O)N[C@H](C(=O)N[C@@H](CCC(=O)O)C(=O)N[C@@H](CCC(=O)O)C(=O)N[C@@H](CC(C)C)C(=O)N[C@@H](CC(C)C)C(=O)N[C@@H](CCCCN)C(=O)N[C@@H](CCCCN)C(=O)N[C@@H](C)C(=O)N[C@@H](CCC(=O)O)C(=O)N[C@@H](CCC(=O)O)C(=O)N[C@@H](CCC(N)=O)C(=O)N[C@@H](CCC(N)=O)C(=O)N[C@@H](CCCCN)C(=O)N[C@@H](CCCCN)C(=O)N[C@@H](CC(N)=O)C(=O)N[C@@H](CCC(=O)O)C(=O)N[C@@H](C)C(=O)N[C@@H](C)C(=O)N[C@@H](C)C(=O)N[C@@H](CCCCN)C(=O)N[C@@H](CCCCNC(=O)CCC(=O)O[C@H]1CC[C@@]2(C)C(=CC[C@H]3[C@@H]4CC[C@H]([C@H](C)CCCC(C)C)[C@@]4(C)CC[C@@H]32)C1)C(N)=O)[C@@H](C)CC [LP-121] (Ac-EMTWEEWEKKIEELEKKIEELLKKAEEQQKKNEAAAKK(Succinyl(4-O-cholesteryl))-NH2) |  | 69 | > 98 | 81 | 9.88 | 42.4 | 52 |  |  | 
CC[C@H](C)[C@H](NC(=O)[C@H](CCCCN)NC(=O)[C@H](CCCCN)NC(=O)[C@H](CCC(=O)O)NC(=O)[C@H](Cc1c[nH]c2ccccc12)NC(=O)[C@H](CCC(=O)O)NC(=O)[C@H](CCC(=O)O)NC(=O)[C@H](Cc1c[nH]c2ccccc12)NC(=O)[C@@H](NC(C)=O)[C@@H](C)O)C(=O)N[C@@H](CCC(=O)O)C(=O)N[C@@H](CCC(=O)O)C(=O)N[C@@H](CC(C)C)C(=O)N[C@@H](CCC(=O)O)C(=O)N[C@@H](CCCCN)C(=O)N[C@@H](CCCCN)C(=O)N[C@H](C(=O)N[C@@H](CCC(=O)O)C(=O)N[C@@H](CCC(=O)O)C(=O)N[C@@H](CC(C)C)C(=O)N[C@@H](CC(C)C)C(=O)N[C@@H](CCCCN)C(=O)N[C@@H](CCCCN)C(=O)N[C@@H](C)C(=O)N[C@@H](CCC(=O)O)C(=O)N[C@@H](CCC(=O)O)C(=O)N[C@@H](CCC(N)=O)C(=O)N[C@@H](CCC(N)=O)C(=O)N[C@@H](CCCCN)C(=O)N[C@@H](CCCCN)C(=O)N[C@@H](CC(N)=O)C(=O)N[C@@H](CCC(=O)O)C(=O)N[C@@H](CCC(N)=O)C(=O)N[C@@H](CCC(=O)O)C(=O)N[C@@H](C)C(=O)N[C@@H](C)C(=O)N[C@@H](C)C(=O)N[C@@H](CCCCN)C(=O)N[C@@H](CCCCNC(=O)CCC(=O)O[C@H]1CC[C@@]2(C)C(=CC[C@H]3[C@@H]4CC[C@H]([C@H](C)CCCC(C)C)[C@@]4(C)CC[C@@H]32)C1)C(N)=O)[C@@H](C)CC [LP-122] (Ac-TWEEWEKKIEELEKKIEELLKKAEEQQKKNEQEAAAKK(Succinyl(4-O-cholesteryl))-NH2) |  | 65 | > 98 | 81 | 9.05 | 41.5 | 22.5 |  |  | 
CC[C@H](C)[C@H](NC(=O)[C@H](CCCCN)NC(=O)[C@H](CCCCN)NC(=O)[C@H](CCC(=O)O)NC(=O)[C@H](Cc1ccc(O)cc1)NC(=O)[C@H](CCC(=O)O)NC(=O)[C@H](CCC(=O)O)NC(=O)[C@H](Cc1ccc(O)cc1)NC(=O)[C@@H](NC(C)=O)[C@@H](C)O)C(=O)N[C@@H](CCC(=O)O)C(=O)N[C@@H](CCC(=O)O)C(=O)N[C@@H](CC(C)C)C(=O)N[C@@H](CCC(=O)O)C(=O)N[C@@H](CCCCN)C(=O)N[C@@H](CCCCN)C(=O)N[C@H](C(=O)N[C@@H](CCC(=O)O)C(=O)N[C@@H](CCC(=O)O)C(=O)N[C@@H](CC(C)C)C(=O)N[C@@H](CC(C)C)C(=O)N[C@@H](CCCCN)C(=O)N[C@@H](CCCCN)C(=O)N[C@@H](C)C(=O)N[C@@H](CCC(=O)O)C(=O)N[C@@H](CCC(=O)O)C(=O)N[C@@H](CCC(N)=O)C(=O)N[C@@H](CCC(N)=O)C(=O)N[C@@H](CCCCN)C(=O)N[C@@H](CCCCN)C(=O)N[C@@H](CC(N)=O)C(=O)N[C@@H](CCC(=O)O)C(=O)N[C@@H](CCC(N)=O)C(=O)N[C@@H](CCC(=O)O)C(=O)N[C@@H](C)C(=O)N[C@@H](C)C(=O)N[C@@H](C)C(=O)N[C@@H](CCCCN)C(=O)N[C@@H](CCCCNC(=O)CCC(=O)O[C@H]1CC[C@@]2(C)C(=CC[C@H]3[C@@H]4CC[C@H]([C@H](C)CCCC(C)C)[C@@]4(C)CC[C@@H]32)C1)C(N)=O)[C@@H](C)CC [LP-124] (Ac-TYEEYEKKIEELEKKIEELLKKAEEQQKKNEQEAAAKK(Succinyl(4-O-cholesteryl))-NH2) |  | 64 | 86 | 79 | 1.06 | 5.93 | 2.07 | ~9 | ~7 | about 11 folds
CC[C@H](C)[C@H](NC(=O)[C@H](CCCCN)NC(=O)[C@H](CCCCN)NC(=O)[C@H](CCC(=O)O)NC(=O)[C@H](Cc1ccc(O)cc1)NC(=O)[C@H](CCC(=O)O)NC(=O)[C@H](CCC(=O)O)NC(=O)[C@H](Cc1ccc(O)cc1)NC(=O)[C@H](CCC(=O)O)NC(C)=O)C(=O)N[C@@H](CCC(=O)O)C(=O)N[C@@H](CCC(=O)O)C(=O)N[C@@H](CC(C)C)C(=O)N[C@@H](CCC(=O)O)C(=O)N[C@@H](CCCCN)C(=O)N[C@@H](CCCCN)C(=O)N[C@H](C(=O)N[C@@H](CCC(=O)O)C(=O)N[C@@H](CCC(=O)O)C(=O)N[C@@H](CC(C)C)C(=O)N[C@@H](CC(C)C)C(=O)N[C@@H](CCCCN)C(=O)N[C@@H](CCCCN)C(=O)N[C@@H](C)C(=O)N[C@@H](CCC(=O)O)C(=O)N[C@@H](CCC(=O)O)C(=O)N[C@@H](CCC(N)=O)C(=O)N[C@@H](CCC(N)=O)C(=O)N[C@@H](CCCCN)C(=O)N[C@@H](CCCCN)C(=O)N[C@@H](CC(N)=O)C(=O)N[C@@H](CCC(=O)O)C(=O)N[C@@H](C)C(=O)N[C@@H](C)C(=O)N[C@@H](C)C(=O)N[C@@H](CCCCN)C(=O)N[C@@H](CCCCNC(=O)CCC(=O)O[C@H]1CC[C@@]2(C)C(=CC[C@H]3[C@@H]4CC[C@H]([C@H](C)CCCC(C)C)[C@@]4(C)CC[C@@H]32)C1)C(N)=O)[C@@H](C)CC [LP-126] (Ac-EYEEYEKKIEELEKKIEELLKKAEEQQKKNEAAAKK(Succinyl(4-O-cholesteryl))-NH2) |  | 51 | 92 | 66 | 1.65 | 6.08 | 3.85 |  |  | 
